The source of these data is US10889563B2, “Deoxyuridine triphosphatase inhibitors” (University of Southern California, priority 2013, dated 2021).

Data set [1] deals with colorectal (HCT116), breast (MCF-7) and non-small cell lung (H1299, A549, H358 and H460) cell line models. The experiment in a line: Colony formation assay, all cell lines evaluated. Format: cell-based. The protocol:
(§1) Colony forming assay showing the ability of colon (SW620, HCT 116), non-small cell lung (A549, H460, H1299 and H358) and breast (MCF7) cancer cells to survive and proliferate following transient 24 hour exposure to single agent PCI 1013, FUdR and combinations. Specifically, cells were seeded at densities between 50 and 100 cells/well in 24-well plates. Twenty-four hours later, cells were treated with increasing concentrations of PCI 10213, a fixed dose of FUdR and combinations of these. After 24 hours, drug was removed, cells were rinsed and allowed to outgrow for 10-14 days. At the conclusion of the outgrowth, cells were fixed in 60% ice cold methanol and stained with 0.1% crystal violet, scanned and counted. Data is presented as percentage of untreated controls (mean±SD). Fraction affected and combination indexes were calculated according to the method of Chou and Talalay where <1 is indicative of a synergistic drug interaction.
(§2) Subsequently, increasing concentrations of PCI 10213 were combined with a fixed dose of FUdR to evaluate the combined drug effect. In NSCLC cells, concentrations of PCI 10213 ranging from 3.1 μmol/L to 25 μmol/L were combined with 1 μmol/L FUdR. […] The effectiveness of this combination was pronounced in A549 and H460 cells where 12.5 and 25 μmol/L PCI 10213 combined with 1 μmol/L FUdR reduced cell viability by >95% compared to vehicle-treated controls.

The subject of data set [2] is HCT116 cells. The data set can be described thus: Colony formation assay, HCT116. It is filed as cell-based. The protocol:
as §1, with “interaction. […]” for “interaction.”
(§3) In colorectal cancer cells, concentrations of PCI 10213 ranging from 3.1 μmol/L to 50 μmol/L were combined with 0.5 μmol/L FUdR in HCT116 cells and 1 μmol/L FUdR in SW620 cells.

The test system of data set [3] is SW620 cells. The data set can be described thus: Colony formation assay, SW620. Format: cell-based. The conditions noted are these: SW620; PCI 10213 3.1 to 50 μmol/L or FUdR 1 μmol/L alone. The protocol:
as §1, §3

The test system of data set [4] is MCF-7 breast cancer cell line. The data set can be described thus: Colony formation assay, MCF-7. It is filed as cell-based. The conditions noted are these: MCF-7, 0.5 μmol/L. The protocol: as §1, §2
Data set [5] relates to HCT-8 colorectal cell line model. The data set can be described thus: Colony formation assay, HCT-8. It is filed as cell-based. The conditions noted are these: HCT-8, 1 μmol/L. The protocol:
as §1
Colony forming assays were subsequently performed to evaluate the effectiveness of additional PCI compounds alone and in combination with FUdR at reducing cancer cell viability in the HCT-8 colorectal cell line model. […] Subsequently, increasing concentrations of PCI compounds were combined with a fixed dose of 1 μmol/L FUdR to evaluate the combined drug effect.

Data set [6] deals with NSCLC cells (H1299, A549, H358 and H460). The experiment in a line: Colony formation assay, NSCLC cells. Format: cell-based. Particulars: FUdR printed as One mol/L, vs vehicle-treated controls. As to the method: as §1, §2
Data set [7] concerns HCT116 cells. The data set can be described thus: Colony formation assay, HCT116. It is filed as cell-based. Particulars: HCT116, 0.5 to 5 μmol/L (Example 23).
The test system of data set [8] is HCT116 cells. The experiment in a line: cells. The conditions noted are these: Homo sapiens, HCT-116, read-out: growth inhibition as a single agent.
Data set [9] deals with HCT116 cells.
Data set [10] has as its system H460 cells. The experiment in a line: Colony formation assay, H460. Format: cell-based. The conditions noted are these: H460, 25 and 50 μmol/L single agent. As to the method: as §1, §2
For data set [11], the system named is H1299 cells. The experiment in a line: MTS growth inhibition assay, H1299. Particulars: H1299, 72 hours, 100 μmol/L single agent. (In general: Tetrazolium assays rely on reduction of a dye to a coloured formazan, in cell work by metabolically active cells.)
Procedure: (§4) The Cell Titer^96 AQueous MTS assay (Promega) was carried out according to the manufacturers guidelines. […] The combination effect was determined by the combination index (CI) method utilizing Calcusyn software (Biosoft, Ferguson, Mo.). Fraction affected (FA) was calculated from the percent growth inhibition: FA=(100−% growth inhibition)/100. CI values <1, synergism; 1-1.2, additive and >1.2, antagonism.
(§5) The NSCLC cell lines A549 and H1299 were exposed to increasing concentrations of each agent for 72 hours and growth inhibition was directly compared to vehicle-treated controls.
Data set [12] relates to A549 cells. The data set can be described thus: Colony formation assay, A549. Format: cell-based. Particulars: A549, 25 and 50 μmol/L single agent. As to the method: as §1, §2
Data set [13] concerns the target T1, Recombinant human deoxyuridine nucleotidohydrolase (dUTPase) (Homo sapiens, UniProt P33316).
T1 sequence (P33316 1-164 isoform P33316-2): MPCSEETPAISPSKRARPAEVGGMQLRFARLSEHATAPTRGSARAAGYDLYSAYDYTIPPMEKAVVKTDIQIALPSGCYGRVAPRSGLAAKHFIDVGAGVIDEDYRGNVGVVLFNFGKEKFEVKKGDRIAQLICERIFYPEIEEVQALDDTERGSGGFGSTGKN
The experiment in a line: Fluorescence-based dUTPase inhibition assay (Example 19; 5 ng dUTPase, 8 min at 37° C.).
Source text: All drugs stocks were aliquoted and diluted as appropriate prior to use. The oligonucelotide primer, templates and fluorophore- and quencher-labeled detection probes are synthesized by Integrated DNA Technologies (Coralville, Iowa), subjected to polyacrylamide gel electrophoresis purification and reconstituted in Omnipur sterile nuclease-free water (EMD Chemicals USA, Gibbstown N.J.) at a stock concentration of 100 μmol/L. The two non-emissive (dark) quenching molecules incorporated into the detection probes include the Iowa black fluorescein quencher (IBFQ; absorption max 531 nm) and ZEN (non-abbreviation; absorption max 532 nm). The fluorescent label utilized was 6-FAM (5′-carboxyfluorescein; excitation max.=494 nm, emission max.=520 nm). Probes were further diluted to a working stock of 10 μmol/L and aliquoted to avoid repeated freeze/thaw cycles. AmpliTaq Gold DNA Polymerase, GeneAmp 10×PCR Buffer 2, MgCl2 and MicroAmp Optical 96-well Reaction Plates were purchased from Applied Biosystems (Carlsbad, Calif.). dNTPs were purchased individually at stock concentrations of 100 mmol/L from New England Biolabs at HPLC-certified >99% purity (Ipswich, Mass.).
Reaction mixtures contained primer, probe and template at an equimolar final concentration of 0.4 μmol/L. Magnesium chloride (MgCl2) was included at a final concentration of 2 mmol/L. Non-limiting dNTPs were included in the reaction mix in excess at a final concentration of 100 μmol/L (dUTP/dTTP was excluded). AmpliTaq Gold DNA polymerase was added at 0.875 U/reaction, 2.5 μl of 10×PCR buffer 2 added and nuclease-free ddH2O added to a final reaction volume of 25 μl. For dUTP inhibition analysis, the volume of ddH2O was further modified to accommodate an additional 1 μl of dUTPase (10 ng/μl) and 1 μl of inhibitor or DMSO control. Thermal profiling and fluorescence detection was performed using the ‘isothermal’ program on board an Applied Biosystems 7500 Real-Time PCR System. For analysis of dNTPs, the thermal profile consisted of an 8 min 37° C. step followed by a 10 min 95° C. step to ‘hot-start’ the Taq polymerase and a primer extension time of up to 30 min at 60° C. depending on the application. Raw fluorescence spectra for 6-FAM was measured using filter A at specified time intervals to follow assay progression using Sequence Detection Software (SDS Version 1.4, Applied Biosystems) and exported and analyzed in Microsoft Excel (Microsoft, Redmond Wash.) and Prism (GraphPad Software, La Jolla Calif.). In all cases, fluorescence values for blank reactions (limiting dNTP omitted) were subtracted to give normalized fluorescence units (NFU) to account for background fluorescence.
The assay employs a DNA polymerase-based approach utilizing an oligonucleotide template with 3 distinct regions: a 3′ primer binding region, a mid-template dUTP/thymidine triphosphate (TTP) detection region and a 5′ 6-Flavin adenine mononucleotide (FAM)-labeled probe binding region that incorporates a black hole quenching moiety.
reaction, the probe and primer hybridize to the oligonucleotide template to form the template:primer:probe complex. When Taq polymerase binds to the primer in the TPP complex and dUTP is present, successful extension of the nascent strand occurs and the inherent 5′ to 3′ exonuclease activity of Taq polymerase cleaves and displaces the 6-FAM-labeled probe in a 5′ to 3′ direction, releasing the 6-FAM fluorophore from its proximity to the three quenchers.

For data set [14], the system named is A549 cells. The data set can be described thus: MTS growth inhibition assay, A549. Particulars: A549, 72 hours.
Procedure: as §4, §5
Data set [15] has as its system SW620 cells. The data set can be described thus: MTS growth inhibition assay, SW620.
Procedure: as §4
HCT116 and SW620 cells were exposed to increasing concentrations of each agent for 72 hours and growth inhibition was directly compared to vehicle-treated controls.

Each structure is given as a SMILES string.

Turning to `O=c1[nH]c(=O)n([C@H]2C[C@H](O)[C@@H](CO)O2)cc1F` [FUdR, fluorodeoxyuridine, reference compound], the “colonies formed, FUdR alone” value is “dose-dependent decreases in colonies formed” in data set [1] (all cell lines evaluated, 0.5 to 2.5 μmol/L); “no substantial effect on colonies formed” in data set [5]; “dose-dependent decreases in colonies formed” in data set [7]. The “number of colonies formed, FUdR alone” value was “no significant effect on number of colonies formed” in data set [2] (HCT116, 0.5 μmol/L, vs vehicle-treated controls (Example 23)); “no significant impact on the number of colonies formed” in [4]; “no significant effect on number of colonies formed” in data set [6]. Also, the “number of colonies formed, single agent” value in data set [2] (HCT116, PCI 10213 3.1 to 50 μmol/L or FUdR 0.5 μmol/L alone) is “neither PCI 10213 or the fixed dose of FUdR single agent had any significant effect on the number of colonies formed”; in data set [3], “neither PCI 10213 or the fixed dose of FUdR single agent had any significant effect on the number of colonies formed”.
Turning to `C[C@@H](NS(=O)(=O)CC/C=C/Cn1ccc(=O)[nH]c1=O)c1cccc(OCC2CC2)c1` [PCI 10216, reference compound], in data set [1] (all cell lines examined (Example 22)), the “combined drug effect with fixed doses of FUdR” value is “strong synergy”. Moreover, in data set [8], the inhibition at 25 µM is 44%. Moreover, the “decrease in growth / reduction in proliferation” value in [9] (HCT116, 72 hours, 100 μmol/L single agent) was 67%; in [14] (100 μmol/L single agent) it was 55%. Also, the “lowest concentration with detectable decrease in cell proliferation” value in data set [9] (HCT116, 72 hours, single agent) was 6.25 µmol/L. For the same compound, the “combined effect with 5-FU on growth inhibition” value in data set [9] (HCT116, fixed 25 μmol/L compound plus increasing 5-FU, up to 25 μmol/L 5-FU) was “additive and synergistic increases in growth inhibition”; in data set [15] (SW620, fixed 25 μmol/L compound plus increasing 5-FU, up to 25 μmol/L 5-FU), “additive and synergistic increases in growth inhibition”. Also, the “number of colonies formed, compound alone” value in [10] is “some reduction in the number of colonies formed”; in [12] it was “some reduction in the number of colonies formed”; in [2] (HCT116, 25 and 50 μmol/L single agent), “some reduction in the number of colonies formed”. The “decrease in cell proliferation” value in data set [11] was 30%. The IC50 in data set [13] came to 800 nM. In addition, the “% Inhibition” value in [13] (1.3 umol/L compound) amounted to 60.4%; in data set [13] (83.3 umol/L compound), 95.4%. Moreover, the inhibition at 1.3 µM in data set [13] (1.3 umol/L compound) was 60%. Besides, the inhibition at 2.6 µM in [13] (2.6 umol/L compound) stood at 76.6%. Moreover, the inhibition at 5.2 µM in [13] (5.2 umol/L compound) was 84.6%. Also, in [13] (10.4 umol/L compound), the inhibition at 10.4 µM amounted to 95.9%. In addition, in data set [13] (20.8 umol/L compound), the inhibition at 20.8 µM worked out at 101%. In addition, the inhibition at 41.7 µM in [13] (41.7 umol/L compound) came out at 97.2%. Moreover, the inhibition at 83.3 µM in data set [13] (83.3 umol/L compound) came to 95%. The same compound returned a reduction in proliferation in [14] (75 μmol/L single agent) of 30%. Moreover, the “growth inhibition as a single agent” value in data set [15] (SW620, 25 μmol/L single agent) is reported as 30%. In addition, the “single agent activity / decrease in proliferation” value in [15] (SW620, 72 hours, 100 μmol/L single agent) was 70%.

As a reminder, the inhibition is the drop in the measured response relative to a control, in per cent. In general, IC50 refers to the concentration that inhibits the measured activity by half. For orientation: % Inhibition means the change of the read-out against control, counted positive when it falls.
